Source: patent US5475032A, “2,4-disulfonyl phenyl butyl nitrone, its salts, and their use as pharmaceuticals” (Oklahoma Medical Research Foundation, priority 1995, dated 1995)
Read-outs that look alike come from different tables or passages of the source.

Legend:
[1] = tested on: neuron loss following brain ischemia and reperfusion injury; experiment: neuronal density after 5 min bilateral carotid occlusion, compound i.p. 30 min before ischemia (Example 3); format: in vivo, gerbil; settings: 30 min before ischemia
Experimental: In the experiments a test compound was administered to groups of six gerbils i.p. as a single dose 30 min before 5 min bilateral carotid occlusion. The density of neuronal nuclei in a 100 micron was measured. Two controls were present--controls which received no test compound and controls which received no test compound and no brain ischemia.

[2] = tested on: neuron loss following brain ischemia and reperfusion injury; experiment: neuronal density, post-ischemia treatment, compound i.p. 30 min after reperfusion following 5 min ischemia (Example 4); format: in vivo, gerbil
[3] = tested on: neuronal loss following ischemia; experiment: protection from neuronal loss, i.v. 60 min after reperfusion onset following 5 min ischemia (Example 5); format: in vivo, gerbil; settings: for protection for neuronal loss (neuronal density): 60 min after reperfusion onset
[4] = tested on: temporal/spatial short term memory following ischemia; experiment: 8-arm radial maze test 24 hours after ischemia (Example 6); format: in vivo, gerbil
Experimental: Brain injury can manifest itself as behavioral changes. In this experiment, young adult (3-4 months of age) gerbils were tested to determine their ability to perform an 8-arm maze test 24 hours following an ischemic event as described in Example 1. As compared to nonischemic animals, when untreated they committed many more errors. PBN and compound I were administered to some of the test animals.

[5] = tested on: infarct volume following middle cerebral occlusion; experiment: infarct volume after middle cerebral occlusion (Example 7); format: in vivo, C57BL/6J mice; settings: from 60 min after occlusion for 24 hours
Experimental: The ability of the compound of the invention to reduce infarct volume following an ischemic event was determined.

[6] = tested on: lethality from 10 min ischemia; experiment: lethality protection in aged gerbils from 10 min ischemia (Example 8); format: in vivo, gerbil; settings: 30 min before ischemia
[7] = tested on: C57BL/6L mice; experiment: acute lethality, single i.p. doses of nitrone (Example 9); format: in vivo, mouse; settings: PBN at 560 mg/kg, Compound I at doses nearly twenty times as great
Experimental: As detailed in Table 7. acute lethality in C57BL/6L mice was determined based upon varying sizes of single i.p. doses of nitrone.

[8] = tested on: glutamine synthetase (GS); experiment: protection of glutamine synthetase against βAP 25-35 (Example 11); format: biochemical, gerbil; settings: co-incubation with 0.4 mg/ml BAP 25-35
Experimental: (§1) Cytosolic fractions from gerbil neocortex were prepared and enzyme activities determined. Samples were incubated in the presence of different concentrations of the peptide for 10 min prior to assay. Solid symbols represent the effects of the naturally occurring 25-35 fragment. […] Each point is the mean (+/- s.e.) of 5 observations. βAP derived and other cellular sources of free radicals are an important determinant of the initiation and progression of AD.
(§2) Each point is the mean (+/- s.e.) of 3 observations.

[9] = tested on: creatine kinase (CK); experiment: protection of creatine kinase against βAP 25-35 (Example 11); format: biochemical, gerbil; settings: co-incubation with 0.4 mg/ml BAP 25-35
Experimental: as §1, §2

[10] = comparative tests: nitrone pretreatment combined with adriamycin (Example 13); format: in vivo, mouse; settings: mouse, in vivo, ip; 300 mg/kg with adriamycin; read-out: combined toxicity (lethality)
Text: (§3) All injections were intraperitoneal.

[11] = tested on: acute lethal effects of adriamycin; experiment: as above; format: in vivo, mouse
Text: as §3

[12] = tested on: infarct volume following middle cerebral artery occlusion; settings: cited from earlier work
[13] = tested on: severe trauma ischemia; settings: in vivo; cited from earlier work
[14] = tested on: normal or uninjured cells; settings: cited from earlier work
[15] = doses demonstrated to be possible; settings: up to 1000 mg/kg/hour and higher, or i.v. bolus 10 to 2500 mg/kg

For `CC(C)(C)[N+]([O-])=Cc1ccccc1` [PBN, Alpha-phenyl tert butyl nitrone], the “Neuronal nuclei/100 micron field” value ([1]; 3.2 mg/kg i.p.) was 0.43 Neuronal nuclei/100 micron field, the “Neuronal nuclei/100 micron field” value ([1]; 10 mg/kg i.p.) was 1.13 Neuronal nuclei/100 micron field and the “Neuronal nuclei/100 micron field” value ([1]; 32 mg/kg i.p.) was 1.83 Neuronal nuclei/100 micron field. For the same compound, the “Neuronal nuclei/100 micron field” value ([1]; 50 mg/kg i.p.) was 3.11 Neuronal nuclei/100 micron field, the “Neuronal nuclei/100 micron field” value ([1]; 100 mg/kg i.p.) was 3.68 Neuronal nuclei/100 micron field and the “Neuronal nuclei/100 micron field” value ([1]; 320 mg/kg i.p.) was 3.78 Neuronal nuclei/100 micron field. The “Neuronal nuclei/100 micron field” value ([1]; 1000 mg/kg i.p.) was “Toxic”, the “Neuronal nuclei/100 micron field” value ([1]; 3200 mg/kg i.p.) was “Toxic” and the “Neuronal nuclei/100 micron field” value ([2]; 32 mg/kg i.p.) was 1.09 Neuronal nuclei/100 micron field. For the same compound, the “Neuronal nuclei/100 micron field” value ([2]; 50 mg/kg i.p.) was 1.85 Neuronal nuclei/100 micron field, the “Neuronal nuclei/100 micron field” value ([2]; 100 mg/kg i.p.) was 2.11 Neuronal nuclei/100 micron field and the “Neuronal nuclei/100 micron field” value ([2]; 320 mg/kg i.p.) was 2.25 Neuronal nuclei/100 micron field. The “Neuronal nuclei/100 micron field” value ([2]; 1000 mg/kg i.p.) was “Toxic”, the “protection for neuronal loss (neuronal density)” value (“protection for neuronal loss” for short) ([3]; 0.5 mg/kg single dose i.v.) was 0.83 and the “protection for neuronal loss” value ([3]; 1.0 mg/kg single dose i.v.) was 1.07. For the same compound, the “protection for neuronal loss” value ([3]; 10 mg/kg single dose i.v.) was 1.23, the “effect on neuronal density in control gerbils” value ([3]; control gerbils without brain injury) was “Neither PBN nor Compound I. had an effect on neuronal density” and the “errors in 8-arm radial maze” value ([4]; 1.0 mg/kg/hr for 24 hours) was 29.8 errors. For the same compound, the “errors in 8-arm radial maze” value ([4]; 32 mg/kg/hr for 24 hours) was 18.19 errors, the “errors in 8-arm radial maze” value ([4]; 50 mg/kg/hr for 24 hours) was 6.23 errors and the “errors in 8-arm radial maze” value ([4]; 100 mg/kg/hr for 24 hours) was 5.83 errors. The error levels ([4]; high doses) was “less effective”, the “Infarct Volume” value ([5]; 1.0 mg/kg/hr i.v.) was 17.7 mm^3 and the “Infarct Volume” value ([5]; 10 mg/kg/hr i.v.) was 13.8 mm^3. The “Infarct Volume” value ([5]; 100 mg/kg/hr i.v.) was “Toxic”, the “lethality protection (% survived)” value ([6]; 10 mg/kg) was 42% and the “lethality protection (% survived)” value ([6]; 32 mg/kg) was 50%. For the same compound, the “lethality protection (% survived)” value ([6]; 100 mg/kg) was 75%, the “lethality protection (% survived)” value ([6]; 320 mg/kg) was 92% and the lethality protection ([6]; Compound I: at high levels) was “only partially effective”. For the same compound, the toxicity [7] was “significant toxicity”, the “protection of GS against the effects of βAP fragments” value [8] was “asymptotically leveling out at a substantially incomplete level of protection” and the “protection of CK against the effects of βAP fragments” value [9] was “asymptotically leveling out at a substantially incomplete level of protection”. For the same compound, the mortality [10] was 10 to 20%, the sedation ([11]; 100 mg/kg) was “slight sedation” and the sedation ([11]; 300 mg/kg) was “marked sedation”. The infarct volume reduction ([12]; 100 mg/kg i.p. at 0.5, 5, 17, 29 and 41 hours post stroke) was “approximately 50%”, the infarct volume reduction ([12]; 100 mg/kg i.p. at 5, 17, 29, and 41 hours post stroke) was “approximately 50%” and the “survival of treated animals vs controls” value [13] was “more likely to survive than controls”. The “effect on normal or uninjured cells” value [14] was “no measurable effect on normal or uninjured cells” and the “death or acute toxicity” value [15] was “death or acute toxicity”.
